Laboratory results: patent US11352393B2, “Myotoxin-neutralizing peptides” (priority 2018, dated 2022)
Square brackets hold non-standard residues; d marks the D form. Ends that are not written are not given here. Peptide text beside a SMILES is read from it.

Tests used:
[1] = target: T1, myotoxin II (Bothrops asper, UniProt P24605); assay type: binding
[2] = target: T1, myotoxin II
[3] = Fluorescence polarization test for self-assembly or aggregation; assay type: physicochemical; details: absence of Myotoxin-II

T1 sequence (P24605 17-137 limits assumed): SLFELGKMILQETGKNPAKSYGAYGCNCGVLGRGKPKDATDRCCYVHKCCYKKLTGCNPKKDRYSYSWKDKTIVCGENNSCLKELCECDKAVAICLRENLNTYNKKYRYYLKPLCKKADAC

| Molecule | ELISA signal at different dilutions, myotoxin II coated versus uncoated wells [1] | ELISA signal, myotoxin II coated wells versus uncoated control [1] | Cytotoxicity of Myotoxin II in presence of peptide (LDH release) [2] [%] | Self-assembling or aggregating ability (artificial increase of FP signal of TAMRA-probe) [3] | Signal intensity and signal to noise ratio in cross reactivity ELISA [1] |
| --- | --- | --- | --- | --- | --- |
| QSVTMGPGLITHSPIHTQSK [Clone 1.2] | low difference for the dilutions of 1/100 and 1/1000 | greatest difference between toxin coated wells and control | – | – | – |
| CC(C)[C@H](NC(=O)[C@H](Cc1c[nH]c2ccccc12)NC(=O)[C@H](Cc1c[nH]cn1)NC(=O)[C@@H](N)CC(=O)O)C(=O)N[C@@H](Cc1c[nH]c2ccccc12)C(=O)NCC(=O)N[C@@H](Cc1c[nH]c2ccccc12)C(=O)N[C@@H](CC(N)=O)C(=O)N[C@@H](Cc1ccc(O)cc1)C(=O)N[C@@H](CCC(N)=O)C(=O)N[C@@H](Cc1ccc(O)cc1)C(=O)N[C@@H](CCC(N)=O)C(=O)N1CCC[C@H]1C(=O)N[C@@H](CCC(N)=O)C(=O)N[C@@H](CCC(=O)O)C(=O)N[C@@H](Cc1c[nH]c2ccccc12)C(=O)N[C@@H](Cc1c[nH]cn1)C(=O)N[C@H](C(=O)N[C@@H](CCC(=O)O)C(=O)N[C@@H](CO)C(=O)O)[C@@H](C)O [Clone 1.9] (H-DHWVWGWNYQYQPQEWHTES-OH) | – | – | 4 | – | – |
| VNRMLELKIMDYGGG [Clone 1.1] | low difference for the dilutions of 1/100 and 1/1000 | greatest difference between toxin coated wells and control | – | – | – |
| Y11D-Y (DHWVWGWNYQ[dY]QPQEWHTES) [Clone Y11D-Y] | – | – | – | did not artificially increase the FP signal | – |
| NGYWSSQQYMQQAPMPWRIP [Clone 4.10] | highest signals and also the highest signal to noise ratio in all of the dilutions | greatest difference between toxin coated wells and control | – | – | highest signal intensity and the best signal to noise ratio |
| SWEPYANPTRYKFHDW [Clone 1.8] | low difference for the dilutions of 1/100 and 1/1000 | greatest difference between toxin coated wells and control | – | – | – |
| DYDRIPDIPMLGGGG [Clone 1.4] | low difference for the dilutions of 1/100 and 1/1000 | greatest difference between toxin coated wells and control | – | – | – |
